Common to all, as to assay: NCI-60 cell line screen, 48 h
In assay [1] the test system is PC-3 prostate.
Assay [2] deals with HT29 colon.
The test system of assay [3] is UACC-257 melanoma.
Assay [4] deals with MDA-MB-435.
The subject of assay [5] is SF-539 CNS.
For assay [6], the system named is HOP-62 NSCLC.
Assay [7] has as its system ACHN renal.
Assay [8] deals with OVCAR-5 ovarian.
Assay [9] relates to M14 melanoma.
The test system of assay [10] is SNB-19 CNS.

The structures appear in SMILES notation. Values joined by “and” are separate entries in the source; they are usually repeats but may differ in a detail not shown here. Equal values may be shown once.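 Method: 48-hour compound exposure of cells in 96-well plates, five concentrations, linear interpolation of endpoints. At the GI50, growth is halved. TGI denotes the concentration required for complete inhibition of growth.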

Turning to `COc1ccccc1CNCCCN1C(=O)c2ccc3c4c(ccc(c24)C1=O)C(=O)N(CCCNCc1ccccc1OC)C3=O`, the GI50 in [1] is 0.214 µM; in assay [2], 0.136 µM; in assay [3], 0.184 µM; in assay [4], 0.179 µM; in assay [5], 0.221 µM; in assay [6], 0.192 µM. Also, the GI50 is 0.17 µM in assay [7], 0.225 µM in [8], 0.179 µM in [9] and 0.159 µM in [10]. For the same molecule, the TGI in assay [1] was 0.608 µM; in assay [2], 0.425 µM; in assay [3], 0.349 µM; in assay [4], 0.349 µM; in assay [5], 0.612 µM; in assay [6], 0.633 µM. For the same molecule, the TGI turned out to be 0.555 µM in assay [7], 0.597 µM in assay [8], 0.337 µM in assay [9] and 0.347 µM in [10].

For the molecule `N#C[Se]CCN1C(=O)c2ccccc2C1=O`, the GI50 is 1.74 µM in [1]; 2.84 µM in assay [2]; 2.51 µM in assay [3]; 1.73 µM in [4]; 1.92 µM in assay [5]; 2.17 µM in [6]. Further, the GI50 in assay [7] was 3.33 µM; in [8], 2.24 µM; in [9], 1.21 µM; in [10] it was 2.41 µM. In addition, the TGI in assay [1] was 8.27 µM; in assay [2], 8.29 µM; in [3], 11 µM; in assay [4], 3.83 µM; in [5], 6.85 µM; in assay [6] it was 6.45 µM. Moreover, the TGI in assay [7] worked out at 11.9 µM; in [8] it was 9.38 µM; in assay [9], 3.8 µM; in [10], 8.66 µM.

Consider `Cn1cc(-c2ccc3c(c2)ncn3-c2cc(NS(=O)(=O)C3CC3)cc(-c3ccc(F)cc3F)c2)cn1`, for which the GI50 in assay [1] was 5.97 µM; in [2], 10.3 µM; in assay [3], 27.5 µM; in assay [4] it was 21.9 µM; in assay [5], 1.37 µM; in assay [6], 14.1 µM. Besides, the GI50 in assay [7] is 5 µM; in assay [8] it was 14 µM; in [9], 14.9 µM; in assay [10], 9.46 µM. In addition, the TGI is > 100 µM in assay [1]; 38.3 µM in assay [2]; > 100 µM in assay [3]; > 100 µM in assay [4]; 12.7 µM in assay [5]; > 100 µM in assay [6]. Also, the TGI in assay [7] was 66.9 µM; in [8], > 100 µM; in assay [9] it was > 100 µM; in [10], > 100 µM.

Consider `O=C(CC1(O)C(=O)Nc2c(Cl)cc(Cl)cc21)c1cccc([N+](=O)[O-])c1` (centres undefined), for which the TGI in assay [1] was > 100 µM; in assay [2], > 100 µM; in assay [3], 44.8 µM; in assay [4], 16.3 µM; in assay [5] it was 55.4 µM; in assay [6] it was 98.6 µM. The TGI in [7] is > 54.6 µM; in assay [8] it was > 100 µM; in [9], > 58 µM; in [10], > 100 µM.

In the case of `COc1ccc(-n2c(=O)c3ccccc3n(Cc3ccc(C(=O)NO)cc3)c2=O)cc1`, the GI50 is 2.08 µM in assay [1]; 2.97 µM in assay [2]; 1.65 µM in [3]; 1.74 µM in assay [4]; 1.93 µM in [5]; 2.29 µM in assay [6]. For the same molecule, the GI50 was 3.23 µM in assay [7], 2.34 µM in assay [8], 1.71 µM in [9] and 2.96 µM in assay [10]. In addition, the TGI in assay [1] is 5.06 µM; in assay [2] it was 22.6 µM; in assay [3], 4.3 µM; in assay [4] it was 3.56 µM; in [5] it was 5.25 µM; in [6], 6.19 µM. Moreover, the TGI in assay [7] came to 13.5 µM; in assay [8], 7.56 µM; in assay [9], 3.44 µM; in [10] it was 18.5 µM.

`CN1CCN(C(=O)/C=C/c2ccc([N+](=O)[O-])o2)CC1`: the GI50 in [1] was 21.6 µM; in assay [2], 9.81 µM; in [3] it was 7.78 µM; in assay [4], 3.12 µM; in assay [5], 15 µM; in [6] it was 17.1 µM. The GI50 in [7] is 3.29 µM; in assay [8], 22.3 µM; in [9], 3.11 µM; in [10], 38.1 µM. Further, the TGI in assay [1] is > 100 µM; in [2] it was 37 µM; in assay [3], 21.2 µM; in assay [4] it was 14.9 µM; in assay [5], 45 µM; in assay [6], 39.9 µM. Further, the TGI is 13.1 µM in assay [7], 39.1 µM in assay [8], 11.7 µM in assay [9] and > 100 µM in assay [10].

For the molecule `CNS(=O)(=O)Nc1nccc(Cc2c(C)c3ccc(Oc4ncccn4)cc3oc2=O)c1F`, the GI50 in [1] is > 100 µM; in assay [2] it was 0.0278 µM and 0.0231 µM; in assay [3] it was 0.0153 µM and 0.0116 µM; in [4], 0.0526 µM and 0.0395 µM; in assay [5] it was 61.5 µM and > 10 µM; in assay [7], 4.92 µM and > 2.21 µM. The GI50 in assay [8] was 0.0223 µM and 0.0145 µM; in assay [9] it was 0.0116 µM and 0.0113 µM; in assay [10] it was > 48.4 µM. Also, the TGI in assay [1] was > 100 µM; in [2], > 100 µM; in assay [3], 0.0866 µM and 0.0784 µM; in assay [4], > 100 µM; in assay [5] it was > 100 µM; in assay [6], > 100 µM. Also, the TGI in assay [7] is > 100 µM; in assay [8], > 100 µM; in assay [9], 1.63 µM and > 10 µM; in [10], > 100 µM.

For the molecule `O=C1C[C@@H]2OCC=C3C[N+]4([O-])CC[C@]56c7ccccc7N1[C@H]5[C@H]2[C@H]3C[C@@H]64` (some centres undefined), the GI50 in [1], in assay [2], in assay [3], in assay [4], in assay [5] and in assay [6] was > 100 µM throughout. Also, the GI50 in assay [7], in assay [8], in [9] and in assay [10] was > 100 µM in each case. Moreover, the TGI in [1], in assay [2], in assay [3], in assay [4], in [5] and in assay [6] was > 100 µM throughout. Moreover, the TGI in assay [7], in assay [8], in assay [9] and in [10] was > 100 µM throughout.

With `O=C1[C@H](Cc2ccc(O)cc2)N2C(=O)CCN(C(=O)NCc3ccccc3)[C@H]2CN1Cc1cccc2ccccc12`, the GI50 in assay [1] was 2.54 µM; in assay [2] it was 2.85 µM; in [3] it was 2.72 µM; in [4], 3.96 µM; in [5] it was 0.926 µM; in [6], 3.22 µM. Further, the GI50 in assay [7] is 4.73 µM; in [8], 1.72 µM; in [9], 3.61 µM; in assay [10] it was 0.868 µM. For the same molecule, the TGI was 18.8 µM in assay [1]; 19.3 µM in assay [2]; 23.9 µM in assay [3]; 21.4 µM in assay [4]; 7.4 µM in [5]; 19.1 µM in assay [6]. Besides, the TGI in [7] is 57.7 µM; in assay [8], 29.1 µM; in assay [9], 20.1 µM; in [10], > 100 µM.

Turning to `O=C1c2ccccc2-c2c1c1c(O)cccc1n2Cc1ccccc1`, the GI50 is 12.3 µM in assay [1]; 38.2 µM in [2]; 17.7 µM in assay [3]; 19.1 µM in assay [4]; 14.2 µM in [5]; 12.1 µM in [6]. The GI50 in assay [7] is 6.9 µM; in assay [8], 16.4 µM; in assay [9] it was 26.7 µM; in assay [10] it was 14.4 µM. The TGI in assay [1] was 32.6 µM; in assay [2], > 100 µM; in assay [3], 68.5 µM; in assay [4], > 100 µM; in assay [5], 35.3 µM; in assay [6], 29.8 µM. Moreover, the TGI is 23.8 µM in assay [7], 51.2 µM in assay [8], > 100 µM in assay [9] and 82.5 µM in assay [10].

In the case of `O=S(=O)(Nc1ccccc1)c1ccc(C2CC3(Cl)C(Cl)=C(Cl)C2(Cl)C3(Cl)Cl)cc1` (centres undefined), the GI50 was 2.74 µM in assay [1]; 2.37 µM in assay [2]; 2.64 µM in [3]; 2.34 µM in assay [4]; 2.32 µM in assay [5]; 2.52 µM in assay [6]. For the same molecule, the GI50 was 3.37 µM in [7], 2.36 µM in assay [8], 2.19 µM in [9] and 3.74 µM in assay [10]. Further, the TGI in assay [1] came to 10.2 µM; in [2] it was 5.41 µM; in assay [3], 6.27 µM; in [4], 5.44 µM; in assay [5] it was 5.79 µM; in assay [6] it was 5.93 µM. For the same molecule, the TGI was 10.5 µM in assay [7], 5.46 µM in [8], 4.61 µM in assay [9] and 13.6 µM in assay [10].

Consider `CCCCCCCCCCN=C(N)c1ccc(N2CCN(c3ccc(C(N)=NCCCCCCCCCC)cc3)CC2)cc1`, for which the GI50 in assay [1] was 2.94 µM; in [2], 3.37 µM; in [3] it was 9.81 µM; in assay [4] it was 2.83 µM; in assay [5] it was 1.72 µM; in [6] it was 11.3 µM. Further, the GI50 in assay [7] is 15.7 µM; in assay [8], 5.25 µM; in assay [9], 18 µM; in assay [10] it was 3.02 µM. Besides, the TGI in [1] is 12.1 µM; in assay [2], > 50 µM; in assay [3] it was 26.5 µM; in [4], 12.6 µM; in assay [5] it was 6.76 µM; in assay [6], 29 µM. In addition, the TGI is > 50 µM in assay [7], > 50 µM in assay [8], > 50 µM in assay [9] and 19.1 µM in [10].

The record behind these values is PubChem BioAssay (NCI).
